# Reference: US20070072931A1, “Pharmaceutical composition and a method for treatment of prostate cancer” (priority 2005, published 2007)
# Entries after “also recorded” stand apart in the source; their conditions may differ.
# Experiments:
# [1] = tested on: cytochrome c; assay: Immunofluorescence of cytochrome c release in PC-3 cells; type: cell-based, human
# Description: Cells were cultured on glass cover slips. Both control and treated cells were fixed with PBS containing 4% paraformaldehyde for 2 hrs at 4° C. The cells were permiabilized with 0.1% Triton X-100 in PBS and then incubated with rabbit polyclonal anti-cytochrome c antibody (Santa Cruz, USA, dilution 1:50) for 3 hrs followed by incubation with FITC-conjugated secondary antibody (goat anti-rabbit, Santa Cruz, 1:50) for another 1 hr with rigorous washing in all the above steps with PBS. 1 μg/ml DAPI was also added in each set. The stained cells were observed under fluorescence microscope (Olympus BX51 microscope, Tokyo, Japan) and the images were captured with Cool Snap Pro camera.
# [2] = tested on: skeletal muscle cells; assay: Cell viability, primary culture of neonatal rat skeletal muscle; type: cell-based; settings: 9 μg/ml
# Description: The skeletal muscles from 2-day-old neonatal rats were isolated by method described previously by William E. Russell (1997) with modifications. Briefly, Soleus muscle was dissected, minced and digested with 0.2% Type II Collagenase and 0.05% trypsin in PBS pH 7.4, 0.15M NaCl. The dispersed skeletal muscle cells were centrifuged (100 g, 10 minutes) washed and resuspended in PBS with 1% antibiotic-antimycotic. Cells were preincubated for 30 minutes at 37° C., 95% air/5% CO2. The floating muscle cells were plated on collagen coated T-25 flasks in DMEM enriched with 10% FBS and 1% antibiotic-antimycotic.
# The skeletal muscles from 2-day-old neonatal rat were isolated by method described previously by William E. Russell (1997) with modifications.
# Briefly, Soleus muscles were dissected, minced and digested with 0.2% Type II Collagenase and 0.05% trypsin in PBS, pH 7.4, 0.15M NaCl. The dispersed skeletal muscle cells were centrifuged (1000 g, 10 minutes) washed and re-suspended in PBS with 1% antibiotic-antimycotic. Cells were preincubated for 30 minutes at 37° C., 95% air/5% CO2. The floating muscle cells were plated on collagen coated T-25 flasks in DMEM enriched with 10% FBS and 1% antibiotic-antimycotic.
# (§1) To evaluate the specificity of mahanine, its effect on other cells in primary culture, such as, hepatocytes, cardiomyocyte and skeletal muscle was examined.
# [3] = tested on: Akt; assay: Immunoblotting of Akt and pAkt (ser 473) in PC-3 cells; type: cell-based, human
# Description: (§2) PC-3 cells (1×10^6 cells) were incubated with complete medium. Cells were detached using cell dissociation reagent from Sigma Chemical company St Louis, Mo., USA. They were collected by centrifugation at 1500 g for 10 minutes and boiled for 5-7 minutes in sodium dodecyl sulphate (SDS) buffer (pH 6.8). Aliquots containing 60 μg total cellular protein were separated by 10% SDS-PAGE and transferred to PVDF membrane (MILIPORE, Bedford, Mass., USA). Membrane was blocked with blocking buffer for 1 hr at room temperature and probed with desired primary antibody caspase 9, Bcl-xl, pAkt/1/2/3(ser 473), anti PARP, Cytochrome C (Santa-Cruz Biotechnology, Inc. USA). Anti caspase 3 that recognizes procaspase 3 (32 kDa) and the active cleaved caspase 3 (17 kDa) (BD Biosciences, Mountainview, Calif.). Akt, cleaved caspase 9 (Cell Signaling technology, Beverly, Mass.) overnight at 4° C. followed by alkaline phosphatase conjugated secondary antibody and detection.
# PC-3 cells (1×10^6 cells) were incubated with complete medium alone or with 3 μg/ml of Mahanine (MK-3) as indicated. Cells were detached using cell dissociation reagent from Sigma Chemical company St Louis, Mo., USA. The cells were collected by centrifugation at 1500 g for 10 minutes and boiled for 5-7 minutes in SDS buffer (pH 6.8). Aliquots containing 60 μg total cellular protein were separated by 10% SDS-PAGE and transferred to PVDF membrane (MILIPORE, Bedford, Mass., USA). Membrane was blocked with blocking buffer for 1 hr at room temperature and probed with desired primary antibody caspase 9, Bcl-xl, pAkt/1/2/3(ser 473), anti PARP, Cytochrome C (Santa-Cruz Biotechnology Inc., USA). Anti-caspase 3 that recognizes procaspase 3 (32 kDa) and the active cleaved caspase 3 (17 kDa) (BD Biosciences, Mountainview, Calif.) were also used. Akt, cleaved caspase 9 (Cell Signaling Technology, Beverly, Mass.) overnight at 4° C. followed by alkaline phosphatase conjugated secondary antibody and detection.
# [4] = tested on: cardiomyocytes; assay: Cell viability, primary culture of rat neonatal cardiomyocytes; type: cell-based; settings: 9 μg/ml
# Description: (§3) The cardiomyocytes from 2-day-old neonatal rat were isolated by the method previously described by Yoshihiro Kimura (1994) with modifications. Briefly, heart was excised and minced in pre warmed (37° C.) Ads buffer (1.2M NaCl, 198 mM HEPES, 54 mM KCl, 8.3 mM MgSO4, 55.4 mM glucose, 95 mM NaH2PO4), digested in type II Collagenase 0.05% and Pancreatin in three successive digestions of 15 minutes each. Supernatant was pooled and cells palleted at 2000 g, for 10 minutes. Cells were resuspended and plated in collagen coated T-25 flasks in Medium-199 enriched with 10% FBS and 1% antibiotic-antimycotic.
# as §3, with “Briefly, the” for “Briefly,”, “pre-warmed” for “pre warmed”, “3-succesive” for “three successive”, “g,” for “g, for”
# as §1
# [5] = tested on: LNCaP cells; assay: Cell killing / viability of androgen dependent prostate cancer cell line LNCaP; type: cell-based; settings: mahanine 1, 2, 3 μg/ml vs untreated cells
# Description: FIG. 2 is a graph showing dose response of PC-3 and LNCaP cell line to mahanine. […] The dose used was 1, 2, 3 μg/ml in comparison to control untreated cells (0) in both the cell lines.
# [6] = tested on: hepatocytes; assay: Cell viability, primary culture of rat neonatal hepatocytes; type: cell-based; settings: 9 μg/ml
# Description: (§4) The hepatocytes from 2-day-old neonatal rats were isolated by method described previously by William E. Russell (1997) with modifications. Briefly, the livers were perfused through the portal vein with a calcium-free solution consisting of 150 mM NaCl, 2.8 mM KCl, 5.5 mM glucose, and 25 mM HEPES (pH 7.6) for 10 minutes, followed by mincing and digestion in DMEM containing 0.05% collagenase type IV for 30 minutes. The cells were centrifuged (2000 g, 10 minutes) and dispersed in DMEM enriched with 10% FBS, 1% antibiotic-antimycotic.
# The hepatocytes from 2-day-old neonatal rat were isolated by method described previously by William E Russell (1997) with modifications.
# as §4, with “Briefly,” for “The hepatocytes from 2-day-old neonatal rats were isolated by method described previously by William E. Russell (1997) with modifications. Briefly,”
# as §1
# [7] = tested on: caspase 9; assay: Immunoblotting of caspase 9 activation in PC-3 cells; type: cell-based, human; settings: 3 μg/ml
# Description: as §2
# (§5) PC-3 cells (1×10^6 cells) were incubated with complete medium alone or with 3 μg/ml of Mahanine (MK-3) as indicated. Cells were detached using cell dissociation reagent from Sigma Chemical company St Louis, Mo., USA. The cells were collected by centrifugation at 1500 g for 10 minutes and boiled for 5-7 minutes in SDS buffer (pH 6.8). […]
# [8] = Acute toxicity as per WHO guidelines, haematological and biochemical parameters; type: in vivo, Mice; Balb/C
# Description: Experiments for acute toxicity were performed as per the guidelines of WHO.
# Experimental subject: Mice; Balb/C Male, female; 25 gms body weight (approx).
# 16 mice were divided into 2 groups; 8 animals received the dosage of @2 gm/kg body weight of combined extract. Equal volume of the vehicle (DMSO) was given to 8 animals, wherein the dose was administered orally once and then animals were sacrificed and haematological parameters checked 15 days after treatment.
# Experimental subject: Mice; Balb/C Male; female; 25 gms body weight (approx).
# 16 mice were divided into 2 groups 8 animals were received the compound @2 gm/kg body weight. Equal volume of the vehicle (DMSO) was given to 8 animals, wherein the dose was administered orally once, and then animals were sacrificed and haematological and biochemical parameters checked 15 days after treatment.
# Biochemical parameters were assessed for the pure molecule mahanine. Since it is a pure molecule there is a need to see the biochemical profile, therefore we concentrated on the biochemical parameters only. The experimental procedure followed was the same as that for the combined extract described above.
# [9] = tested on: PARP; assay: Immunoblotting of PARP cleavage in PC-3 cells; type: cell-based, human; settings: 3 μg/ml
# Description: as §2, §5
# [10] = tested on: Bcl-xl; assay: Immunoblotting of Bcl-xl expression in PC-3 cells; type: cell-based, human; settings: 36 hrs (mahanine 3 μg/ml)
# Description: as §2, §5
# [11] = tested on: caspase 3; assay: Immunoblotting of caspase 3 activation in PC-3 cells; type: cell-based, human
# Description: as §2, §5
# [12] = tested on: PC-3 cells; assay: Viability of PC-3 by MTT assay (CellTiter 96 AQueous One); type: cell-based, human; settings: mahanine 1, 2, 3 μg/ml vs untreated cells
# Description: Human prostate cancer cell line, PC-3 (PTEN-ve, androgen independent) from American Type Culture Collection, Manassas, Va., USA was used. Cells were grown in Dulbecco's Modified Eagle Medium (DMEM) supplemented with 10% Fetal Bovine Serum (FBS) and 1% antibiotic-antimycotic. Cells were cultured in 37° C. in an atmosphere of 5% CO2.
# Viability of PC-3 after treatment as at the indicated times was determined by MTT assay—CellTiter 96® AQoueus One Solution Cell Proliferation Assay (Promega Corp., Madison, Wis.), as per manufacturer's protocol. Briefly, 10,000 cells were plated in triplicate in 96 well plates and incubated for 12 hrs in complete media. […] Absorbance was recorded at 490 nm with 96 well plate readers. Reference wavelength of 630 nm was used to reduce background contributed by non-specific absorbance due to cell debris. […]
# Viability of PC-3 after treatment as at the indicated times was determined by MTT assay—CellTiter 96® AQoueus One Solution Cell Proliferation Assay (Promega Corp., Madison, Wis.), as per manufacturer's protocol.
# Briefly, 10,000 cells were plated in triplicate in 96 well plates and incubated for 12 hrs in complete media. […] Absorbance was recorded at 490 nm with 96 well plate readers. Reference wavelength of 630 nm was used to reduce background contributed by non-specific absorbance due to cell debris.
substance,measurement,setting,value
mahanine,leakage of cytochrome c from the mitochondria,[1],caused leakage of cytochrome c
same,killing of skeletal muscle cells in primary culture,[2],did not kill
same,effect on steady state levels of Akt protein,[3]; PC-3 cells,no effect
same,inhibition of phosphorylation of Akt,[3]; PC-3 cells,in a dose and time dependent manner
same,time at which Akt serine 473 phosphorylation was inhibited,[3]; PC-3 cells (mahanine 3 μg/ml),24 h
same,time by which Akt activation was totally blocked,[3]; PC-3 cells (mahanine 3 μg/ml),≤ 36 h
same,killing of cardiomyocytes in primary culture,[4],did not kill
same,killing / apoptosis of androgen dependent cell line LNCaP,[5],in a dose and time dependent manner
same,killing of hepatocytes in primary culture,[6],did not kill
same,earliest time at which cleaved caspase 9 could be detected,[7],6 h
same,time course of cleaved caspase 9,[7],"steadily increased at 12 hrs and 24 hrs, and declined at 36 hrs"
same,indication of toxicity in treated mice,"[8]; Balb/C mice, 2 gm/kg orally once, 15 days after treatment",no indication of any toxicity
same,Creatinine,"[8]; Balb/C mice, 2 gm/kg orally once, 15 days after treatment, vehicle control 3.82",3.72 mg/dL
same,Hb,"[8]; Balb/C mice, 2 gm/kg orally once, 15 days after treatment, vehicle control 10.69",10.713 gm/dl
same,SGPT,"[8]; Balb/C mice, 2 gm/kg orally once, 15 days after treatment, vehicle control 32.0",30.7 units/ml
same,Urea,"[8]; Balb/C mice, 2 gm/kg orally once, 15 days after treatment, vehicle control 35.4",48.6 mg/dL
same,WBC,"[8]; Balb/C mice, 2 gm/kg orally once, 15 days after treatment, vehicle control 92",89
same,SGOT,"[8]; Balb/C mice, 2 gm/kg orally once, 15 days after treatment, vehicle control 147.5",174.0 units/ml
same,RBC,"[8]; Balb/C mice, 2 gm/kg orally once, 15 days after treatment, vehicle control 1029",1032
same,change in acute toxicity data until 1 month,"[8]; mice, until 1 month",no change
same,time of maximum cleavage of PARP (89 kDa fragment),[9],36 h
same,Bcl-xl expression at 36 hrs,[10],significantly decreased; also recorded: considerably downregulated
same,time of peak of caspase 3 activity,[11]; PC-3 cells (mahanine 3 μg/ml),60 h
same,activation of caspase 3 at 48 hrs,"[11]; PC-3 cells, 48 hrs (mahanine 3 μg/ml)",considerably increased
same,killing / apoptosis of androgen independent cell line PC-3,[12],in a dose and time dependent manner
same,killing / apoptosis of androgen independent cell line PC-3,[12]; listed as mahanine,in a time and dose dependent manner
